{"source": "patent US20030134901A1", "about": "“Lipoxin compounds and their use in treating cell proliferative disorders” (priority 1993, published 2003)", "key": {"[1]": {"system": "Intact neutrophils from peripheral blood", "assay": "LXA4 metabolism by intact neutrophils", "assay_type": "in vitro ADME, human", "conditions": "intact neutrophils of healthy donors", "description": "Human PMN were obtained from healthy volunteers by gradient centrifugation of heparinized fresh venous blood (Böyum, A. ([…]) Scand. J. Clin. Lab. Invest. 21:77). HL-60 cells were seeded in RPMI supplemented with penicillin (100 U/ml), streptomycin (100 μ/ml), fetal bovine serum (10%) (Hyclone, Logan, Utah) and incubated (37° C. with 5% CO2 atmosphere) in plastic 250 ml flasks. Individual flasks containing […] HL-60 cells/ml were incubated in the presence or absence of phorbol 12-myristate 13-acetate (PMA) (10 or 16 nM, 24-27 h) and adherence was monitored for induction of macrophage-like phenotype as in Collins, S. J. (1987) Blood 70:1233. […]\nIncubations with eicosanoids were stopped with cold methanol containing either PGB2 or 5-HETE as internal standards (5-HETE was used when 15-oxo-ETE was quantified). […] Formation of 15-oxo-ETE by 100,000 g supernatants (cf. Agins, A. P. et al. (1987) Agents Actions 21:397; Xun, C-Q. et al.(1991) Biochem. J. 279:553; and Sok, D-E. et al. (1988) Biochem. Biophys. Res. Commun. 156:524) was quantified after RP-HPLC using an ODS column (4.6 mm×25 cm) eluted with methanol/H2O/acetic acid (70:30:0.01, v/v/v) monitored at 280 nm with a flow rate of 1 ml/min. […] On-line spectra were recorded using a diode array detector (Hewlett-Packard 1040M series II) equipped with HPLC^3D ChemStation software (DOS series). […]"}, "human skin fibroblasts": {"system": "human skin fibroblasts", "assay": "Fibroblast proliferation, MTT assay", "assay_type": "cell-based", "conditions": "Homo sapiens, Skin fibroblast; 100 nM, n=3", "source_text": "Human type II epithelial A549 cells from human lung carcinoma and normal human skin fibroblast (breast) were obtained from the American Type Culture Collection (Rockville, Md.). The A549 cell line originated from a human alveolar cell carcinoma and was a useful cell line because it was easily assessable and could be maintained in culture without contaminating tissue macrophages. (Lieber, M., et al (1976) A continuous tumor-cell line from a human lung carcinoma with properties of type II alveolar epithelial cells. Int. J Cancer Fibroblasts were utilized within their limited window of viability and their passage numbers were recorded (results are reported for cells from 3-5 passages). Epithelial A549 cells were seeded into T-75 cm^2 tissue culture flasks and maintained in F-12K medium supplemented with 10% heat-inactivated FBS, penicillin (50 U/mL) and streptomycin (50 (g/mL). Human PMN from healthy donors who had not taken ASA or other medications for at least two weeks were obtained by Ficoll-Hypaque gradient centrifugation and dextran sedimentation, (Böyum A. (1968) Isolation of mononuclear cells and granulocytes from human blood. […] Viability of A549 cells and PMN was determined by their ability to exclude trypan blue and were 95±2 and 97±1%, respectively.\nA microculture 3,(4,5-dimethylthiazoyl-2-yl) 2,5 (diphenyl-tetrazolium bromide) (MTT) assay, (Marshall, N. J., et al. (1995) A critical assessment of the use of microculture tetrazolium assays to measure cell growth and function. Growth Regul. 5: 69-84.), was used to examine the actions of LXs and other eicosanoids on cell proliferation. A549 cells and fibroblasts from exponential-phase maintenance cultures were counted and dispensed within replicate 96-well culture plates in 100 μl volumes of medium (˜2000 cells/well). […] Dye solution was aspirated, wells were washed once with HBSS and dye taken up by the cells was extracted in 100 μl of isopropyl alcohol:1 N HCl (96:4, v/v) and quantitated at 570 nm using a microplate reader (Molecular Devices, Menlo Park, Calif.). […]"}, "A549 cells": {"system": "A549 cells", "assay": "A549 cell proliferation, MTT assay", "assay_type": "cell-based, human", "procedure,_shortened": "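A549 cells, ~2000/well, given compounds at 5-1000 nM or 0.15% ethanol vehicle after 24 h, quadruplicates, up to 96 h at 37° C. MTT added 4 h, dye extracted in acidified isopropanol and read at 570 nm; MTT signal linear with cell number.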"}, "[2]": {"molecular_target": "T1, LTB4 specific binding sites of HL-60 cells (Homo sapiens, UniProt Q15722)", "T1 construct": "endogenous in cells; host or cells: differentiated HL-60 cells, intact", "T1 sequence (Q15722 whole entry)": "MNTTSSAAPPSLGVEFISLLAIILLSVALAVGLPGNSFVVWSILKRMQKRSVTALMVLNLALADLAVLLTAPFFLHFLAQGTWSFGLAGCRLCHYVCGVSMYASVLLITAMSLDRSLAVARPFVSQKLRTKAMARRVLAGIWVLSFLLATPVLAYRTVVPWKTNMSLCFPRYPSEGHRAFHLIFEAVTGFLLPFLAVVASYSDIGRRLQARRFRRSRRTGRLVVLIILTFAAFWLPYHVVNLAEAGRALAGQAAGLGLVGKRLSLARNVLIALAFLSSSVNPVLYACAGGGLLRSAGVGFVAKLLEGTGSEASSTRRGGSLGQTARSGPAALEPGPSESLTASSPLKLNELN", "assay": "3H-LTB4 specific binding to HL-60 cells", "conditions": "competitor 300 nM, differentiated HL-60 cells"}}}
{"smiles": "CCCCC[C@H](O)/C=C/C=C\\C=C\\C=C\\[C@@H](O)[C@@H](O)CCCC(=O)O", "note": "[LXA4, (5S, 6R, 15S)-trihydroxy-7E, 9E, 11Z, 13E-eicosatetraenoic acid]", "values": [{"measurement": "metabolism of exogenous LXA4", "setting": "[1]", "value": "did not significantly metabolize"}, {"measurement": "inhibition at 0.1 µM", "setting": "human skin fibroblasts", "value": 10.7, "unit": "%"}, {"measurement": "inhibition of A549 cell proliferation over time", "setting": "A549 cells; 1 μM, after 72 and 96 hours of treatment", "value": "inhibited A549 cell proliferation"}, {"measurement": "inhibition at 0.1 µM", "setting": "A549 cells; Homo sapiens, A549, 10^−7 M, 72 hours at 37° C., mean ± SEM, 3 to 7 experiments", "value": "16.3 ± 5.2", "unit": "%"}, {"measurement": "IC50", "setting": "A549 cells; Homo sapiens, A549, MTT assay, 72 hours, read-out: half maximum inhibition (IC50) of A549 cell proliferation", "value": "~80", "unit": "nM"}, {"measurement": "competition with 3H-LTB4 (0.3 nM) binding", "setting": "[2]", "value": "unable to compete"}]}
